This note sets out measurements from PMC10175918 (Communications Biology, 2023).

Structures are written as SMILES. Where two headings read alike, the source gives them in different places.

Holding throughout (assay): TGFα-shedding assay-based GPCR screening with chimeric Gα subunit proteins
Holding throughout (format): cell-based

The target of assay [1] is T1, 348 GPCRs (Homo sapiens, UniProt P30968).
T1 construct: expressed in transfected cells; host or cells: HEK293A
T1 sequence (P30968 1-328): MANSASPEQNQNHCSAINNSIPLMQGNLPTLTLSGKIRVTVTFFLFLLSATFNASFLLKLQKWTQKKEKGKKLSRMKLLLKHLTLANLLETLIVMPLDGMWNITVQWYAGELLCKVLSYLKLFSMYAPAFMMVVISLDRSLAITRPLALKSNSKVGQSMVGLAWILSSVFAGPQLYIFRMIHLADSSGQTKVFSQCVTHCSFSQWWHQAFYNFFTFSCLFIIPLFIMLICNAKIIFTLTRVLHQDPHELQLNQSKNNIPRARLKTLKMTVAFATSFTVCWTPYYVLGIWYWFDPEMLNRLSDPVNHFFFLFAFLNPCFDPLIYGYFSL
The note with it: 10µM, Favipiravir 100μM.

Assay [2] concerns the target T2, 348 GPCRs (Homo sapiens, UniProt O43603).
T2 construct: expressed in transfected cells; host or cells: HEK293A
T2 sequence (O43603 1-387): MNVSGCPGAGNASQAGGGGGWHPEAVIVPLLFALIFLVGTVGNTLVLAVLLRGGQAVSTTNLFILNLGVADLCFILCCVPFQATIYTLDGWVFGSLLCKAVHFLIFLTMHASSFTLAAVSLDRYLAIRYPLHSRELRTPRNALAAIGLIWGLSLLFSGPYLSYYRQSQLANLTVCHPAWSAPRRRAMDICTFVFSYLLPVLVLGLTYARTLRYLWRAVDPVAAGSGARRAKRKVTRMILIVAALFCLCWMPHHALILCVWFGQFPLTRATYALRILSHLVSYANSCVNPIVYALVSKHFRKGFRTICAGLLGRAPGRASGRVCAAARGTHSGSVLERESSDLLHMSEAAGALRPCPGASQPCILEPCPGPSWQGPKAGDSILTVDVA
To be noted: 10µM, Favipiravir 100μM.

The target in assay [3] is T3, 348 GPCRs (Homo sapiens, UniProt Q9HBX9).
T3 construct: expressed in transfected cells; host or cells: HEK293A
T3 sequence (Q9HBX9 1-757): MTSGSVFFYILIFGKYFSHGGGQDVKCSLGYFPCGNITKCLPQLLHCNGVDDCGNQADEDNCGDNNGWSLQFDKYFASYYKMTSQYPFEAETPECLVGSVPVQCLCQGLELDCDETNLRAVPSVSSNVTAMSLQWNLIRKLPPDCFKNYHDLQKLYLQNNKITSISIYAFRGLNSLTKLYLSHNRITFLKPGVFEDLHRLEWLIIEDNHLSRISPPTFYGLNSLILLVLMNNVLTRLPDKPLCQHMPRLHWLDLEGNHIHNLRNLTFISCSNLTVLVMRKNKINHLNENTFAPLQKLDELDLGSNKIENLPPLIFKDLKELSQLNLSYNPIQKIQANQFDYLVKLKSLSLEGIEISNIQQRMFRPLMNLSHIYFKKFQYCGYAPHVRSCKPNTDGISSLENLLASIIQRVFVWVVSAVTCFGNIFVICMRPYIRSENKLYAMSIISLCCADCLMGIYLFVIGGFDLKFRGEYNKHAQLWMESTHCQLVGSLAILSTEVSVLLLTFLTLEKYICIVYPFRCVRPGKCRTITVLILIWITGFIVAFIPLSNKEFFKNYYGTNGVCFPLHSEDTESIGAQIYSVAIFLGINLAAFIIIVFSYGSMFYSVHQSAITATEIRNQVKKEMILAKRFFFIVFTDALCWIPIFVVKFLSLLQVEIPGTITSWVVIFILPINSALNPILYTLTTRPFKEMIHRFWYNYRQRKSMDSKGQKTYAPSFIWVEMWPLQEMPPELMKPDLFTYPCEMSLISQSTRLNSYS
The note with it: RXFP1 (relaxin/insulin-like family peptide receptor 1); 10µM, Favipiravir 100μM.

Assay [4] addresses T4, 348 GPCRs (Homo sapiens, UniProt Q9BZJ7).
T4 construct: expressed in transfected cells; host or cells: HEK293A

Assay [5] has as its target T5, 348 GPCRs (Homo sapiens, UniProt P47890).
T5 construct: expressed in transfected cells; host or cells: HEK293A
T5 sequence (P47890 1-313): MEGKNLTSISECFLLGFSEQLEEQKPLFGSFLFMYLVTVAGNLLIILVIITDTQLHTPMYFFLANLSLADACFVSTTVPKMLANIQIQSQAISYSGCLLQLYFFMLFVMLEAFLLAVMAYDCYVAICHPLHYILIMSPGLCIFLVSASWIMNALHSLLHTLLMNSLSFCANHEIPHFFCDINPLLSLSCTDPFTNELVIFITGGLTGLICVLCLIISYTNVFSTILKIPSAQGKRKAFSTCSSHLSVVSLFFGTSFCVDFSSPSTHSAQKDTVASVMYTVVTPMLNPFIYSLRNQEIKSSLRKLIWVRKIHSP
To be noted: 10µM, Favipiravir 100μM.

For assay [6], the target named is 348 GPCRs (Homo sapiens, UniProt P47872). The note with it: SCTR (secretin receptor); 10µM, Favipiravir 100μM.
Chain of 348 GPCRs (Homo sapiens, UniProt P47872) (P47872 23-440): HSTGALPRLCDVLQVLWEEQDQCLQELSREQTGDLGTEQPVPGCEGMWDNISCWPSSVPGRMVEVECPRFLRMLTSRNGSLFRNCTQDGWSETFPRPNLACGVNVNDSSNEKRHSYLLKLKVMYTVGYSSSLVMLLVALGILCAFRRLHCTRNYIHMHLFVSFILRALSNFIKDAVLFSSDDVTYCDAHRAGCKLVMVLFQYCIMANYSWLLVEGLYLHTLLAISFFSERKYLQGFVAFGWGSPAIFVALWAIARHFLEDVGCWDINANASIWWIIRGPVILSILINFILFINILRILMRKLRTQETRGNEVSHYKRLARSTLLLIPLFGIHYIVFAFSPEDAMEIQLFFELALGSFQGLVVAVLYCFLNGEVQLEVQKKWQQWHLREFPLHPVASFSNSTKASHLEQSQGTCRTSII
Assay [7] concerns the target T6, 348 GPCRs (Homo sapiens, UniProt Q86SM5).
T6 construct: expressed in transfected cells; host or cells: HEK293A
T6 sequence (Q86SM5 1-289): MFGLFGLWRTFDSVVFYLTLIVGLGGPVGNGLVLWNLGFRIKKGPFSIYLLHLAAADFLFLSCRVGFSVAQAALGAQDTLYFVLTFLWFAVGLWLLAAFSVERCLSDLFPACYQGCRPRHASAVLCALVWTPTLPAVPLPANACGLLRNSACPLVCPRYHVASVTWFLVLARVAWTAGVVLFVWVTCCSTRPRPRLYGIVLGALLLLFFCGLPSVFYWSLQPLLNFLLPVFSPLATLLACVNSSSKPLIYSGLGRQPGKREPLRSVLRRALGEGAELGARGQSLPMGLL
To be noted: 10µM, Favipiravir 100μM.

Setting [8] is: GNRHR (gonadotropin releasing hormone receptor), read-out: % GPCR activation compared to TPA.
Setting [9] is: GAL2 (galanin receptor 2), read-out: % GPCR activation compared to TPA.
The mark [10] stands for this setting: OR1G1 (olfactory receptor, family 1, subfamily G, member 1), read-out: % GPCR activation compared to TPA.
Setting [11] is: MRGPRG (MAS-related GPR, member G), read-out: % GPCR activation compared to TPA.
Where [12] appears, read: read-out: % GPCR activation compared to TPA, GNRHR (gonadotropin releasing hormone receptor).
Where [13] appears, read: read-out: % GPCR activation compared to TPA, GAL2 (galanin receptor 2).
Where [14] appears, read: read-out: % GPCR activation compared to TPA, GPCR GPR62 (G protein-coupled receptor 62).
Setting [15] is: read-out: % GPCR activation compared to TPA, OR1G1 (olfactory receptor, family 1, subfamily G, member 1).
Setting [16] is: read-out: % GPCR activation compared to TPA, MRGPRG (MAS-related GPR, member G).
Where [17] appears, read: GPCR GPR62 (G protein-coupled receptor 62), read-out: % GPCR activation compared to TPA.

T4 sequence (Q9BZJ7 whole entry): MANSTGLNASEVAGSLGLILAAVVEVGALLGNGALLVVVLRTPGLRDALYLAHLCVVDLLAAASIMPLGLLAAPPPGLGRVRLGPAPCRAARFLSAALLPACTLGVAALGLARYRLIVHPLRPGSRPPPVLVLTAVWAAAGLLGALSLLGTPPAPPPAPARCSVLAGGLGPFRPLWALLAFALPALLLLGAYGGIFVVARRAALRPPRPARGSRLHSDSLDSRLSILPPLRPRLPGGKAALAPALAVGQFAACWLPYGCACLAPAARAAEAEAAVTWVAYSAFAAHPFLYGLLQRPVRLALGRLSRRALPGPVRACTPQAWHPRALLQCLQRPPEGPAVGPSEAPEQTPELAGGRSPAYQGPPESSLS

With `NC(=O)c1nc(F)cnc1O` [favipiravir, 6-fluoro-3-hydroxy-2-pyrazinecarboxamide], the activation at 10 µM on 348 GPCRs [1] (setting [8]) is -1.3%; at 348 GPCRs [5] (setting [10]) it was 0.965%. The activation at 100 µM at 348 GPCRs [2] (setting [9]) is -0.244%; on 348 GPCRs [4] (GPCR GPR62 (G protein-coupled receptor 62), 100μM, read-out: % GPCR activation compared to TPA) it was -1.63%; at 348 GPCRs [7] (setting [11]), -0.36%. Moreover, the “% GPCR activation compared to TPA” value at 348 GPCRs [3] is recorded as 0.2738%; at 348 GPCRs [6], -0.5125%.
Consider `CC(C)OC(=O)[C@H](C)N[P@](=O)(OC[C@H]1O[C@@H](n2ccc(=O)[nH]c2=O)[C@](C)(F)[C@@H]1O)Oc1ccccc1` [sofosbuvir], for which the activation at 10 µM was -0.976% at 348 GPCRs [1] (setting [12]), 1.52% at 348 GPCRs [4] (setting [14]) and -2.98% at 348 GPCRs [5] (setting [15]). The activation at 100 µM at 348 GPCRs [2] (setting [13]) is 3.27%; on 348 GPCRs [7] (setting [16]) it was -0.28%. Also, the entries for the “% GPCR activation compared to TPA” value at 348 GPCRs [3] and at 348 GPCRs [6] were 0.4557% and 0.153%, respectively.
On to `CCC(CC)COC(=O)[C@H](C)N[P@](=O)(OC[C@H]1O[C@@](C#N)(c2ccc3c(N)ncnn23)[C@H](O)[C@@H]1O)Oc1ccccc1` [remdesivir], for which the figures for the activation at 10 µM at 348 GPCRs [1] (setting [12]), on 348 GPCRs [4] (setting [14]) and on 348 GPCRs [5] (setting [15]) were -0.876%, 0.871% and -1.69%, respectively. Also, the activation at 100 µM was 0.971% at 348 GPCRs [2] (setting [13]) and -0.00101% at 348 GPCRs [7] (setting [16]). Also, the “% GPCR activation compared to TPA” value is recorded as -0.5639% at 348 GPCRs [3] and -0.9507% at 348 GPCRs [6].
In the case of `N#C[C@@]1(c2ccc3c(N)ncnn23)O[C@H](CO)[C@@H](O)[C@H]1O` [GS441524], the activation at 10 µM on 348 GPCRs [1] (setting [8]) was -3.48%; at 348 GPCRs [4] (setting [17]), -0.286%; at 348 GPCRs [5] (setting [10]), -1.68%. Also, the activation at 100 µM at 348 GPCRs [2] (setting [9]) is -0.925%; on 348 GPCRs [7] (setting [11]), -1.34%. The “% GPCR activation compared to TPA” value at 348 GPCRs [3] is -1.093%; at 348 GPCRs [6], 0.8944%.
In the case of `CC(C)C(=O)OC[C@H]1O[C@@H](n2ccc(NO)nc2=O)[C@H](O)[C@@H]1O` [molnupiravir], the activation at 10 µM is -1.32% at 348 GPCRs [1] (setting [8]), -0.851% at 348 GPCRs [4] (setting [17]) and -3.31% on 348 GPCRs [5] (setting [10]). Further, the activation at 100 µM was -6.16% on 348 GPCRs [2] (setting [9]) and -1.58% at 348 GPCRs [7] (setting [11]). Also, the “% GPCR activation compared to TPA” value is on record as -0.9572% on 348 GPCRs [3] and -0.08366% on 348 GPCRs [6].
